{
  "source": "patent US20130251696A1",
  "about": "“Antioxidant Composition for Reducing Oxidative Stress Ascribable to the Treatment with Hormonal Contraceptive Drugs” (COR.CON. INTERNATIONAL S.R.L., priority 2010, published 2013)",
  "origin": "cited, not measured here",
  "conditions": "principal organs (heart, brain, liver, uterus etc.)",
  "data": [
    {"smiles": "O=C(O[C@@H]1Cc2c(O)cc(O)cc2O[C@@H]1c1cc(O)c(O)c(O)c1)c1cc(O)c(O)c(O)c1", "note": "[EGCG, epigallocatechin gallate]", "values": [
      {"measurement": "tissue levels as % of blood levels", "result": "8-10%"}
    ]}
  ]
}
